# Measurements taken from ChEMBL document CHEMBL1127805 (J Med Chem, 1994).
# What was measured:
# Mus musculus [1] = experiment: In vivo antagonist activity against seizures elicited by NMDLA in mice administered intraperitoneally; format: functional; conditions: ip
# Mus musculus [2] = experiment: In vivo antagonist activity against seizures elicited by audiogenic, administered intra peritoneally in mice; format: functional
# [3] = target: T1, Glutamate receptor ionotropic, NMDA 1 (Rattus norvegicus, UniProt P35439); experiment: Compound was evaluated for in vitro inhibition of cortical neuron at NMDA receptor
# Mus musculus [4] = experiment: Antagonist activity in amphetamine hyperactivity seizure model in vivo through intraperitoneal route; format: functional; conditions: ip
# Mus musculus [5] = experiment: Antagonist activity in PCP hyperactivity seizure model in vivo through subcutaneous route; format: functional; conditions: sc
# Glutamate NMDA receptor [6] = experiment: In vitro inhibition of [3H]glycine at NMDA receptor; format: protein-complex assay
# Glutamate NMDA receptor [7] = experiment: Compound was evaluated for in vitro inhibition of [3H]TCP at NMDA receptor; format: protein-complex assay
# [8] = Compound was evaluated for harmaline-induced cGMP seizure in vivo through ip route; format: functional
# Mus musculus [9] = experiment: In vivo antagonist activity against seizures elicited by audiogenic administered intra peritoneally in mice; format: functional
# Glutamate NMDA receptor [10] = experiment: Compound was evaluated for in vitro inhibition of [3H]MK-801 at NMDA receptor; format: protein-complex assay
# Mus musculus [11] = experiment: In vivo antagonist activity against seizures elicited by audiogenic administered icv in mice; format: functional
# [12] = target: Glutamate [NMDA] receptor; experiment: Compound was evaluated for in vitro inhibition of myenteric plexus, guinea pig at NMDA receptor; format: protein-complex assay, Cavia porcellus
# Rattus norvegicus [13] = experiment: Compound was evaluated for neuroprotection, rat MCAO in vivo through iv route; format: functional
# Mus musculus [14] = experiment: In vivo antagonist activity against seizures elicited by audiogenic, administered perorally in mice; format: functional; conditions: po
# [15] = target: T2, Glutamate receptor ionotropic, NMDA 2C (Rattus norvegicus, UniProt Q00961); experiment: Compound was evaluated for in vitro inhibition of [3H]-GABA release at NMDA receptor.
# [16] = target: T2, Glutamate receptor ionotropic, NMDA 2C; experiment: Compound was evaluated for in vitro inhibition of cortical slice release at NMDA receptor.
# [17] = target: T1, Glutamate receptor ionotropic, NMDA 1; experiment: Compound was evaluated for in vitro inhibition of [3H]L-689,560 at NMDA receptor.
# Gerbillinae [18] = experiment: Compound was evaluated for neuroprotection, gerbil in vivo through ip route; format: functional
# [19] = target: T1, Glutamate receptor ionotropic, NMDA 1; experiment: Compound was evaluated for in vitro inhibition of cortical slice at NMDA receptor
# Mus musculus [20] = experiment: In vivo antagonist activity against seizures elicited by NMDA in mice administered perorally; format: functional; conditions: po
# Rattus norvegicus [21] = experiment: Antagonist activity for neuroprotection, in rat MCAO in vivo through intravenous bolus+infusion route
# Mus musculus [22] = experiment: Antagonist activity in electroshock model in vivo through intravenous route; format: functional
# Mus musculus [23] = experiment: In vivo antagonist activity against seizures elicited by NMDLA in mice administered intravenously; format: functional; conditions: iv
# Mus musculus [24] = experiment: Antagonist activity in PTZ seizure model in vivo through intravenous route; format: functional
# [25] = target: T1, Glutamate receptor ionotropic, NMDA 1; experiment: Compound was evaluated for in vitro inhibition of cGMP cerebellar slice at NMDA receptor.
# Rattus norvegicus [26] = experiment: Compound was evaluated for D-Ser-induced cGMP in vivo through ip route; format: functional
# Mus musculus [27] = experiment: Compound was evaluated for nociception in electroshock mice model in vivo through ip route; format: functional
# Mus musculus [28] = experiment: Compound was evaluated for audiogenic seizure in vivo through intra peritoneal route; format: functional
# Mus musculus [29] = experiment: Compound was evaluated for passive avoidance in vivo through intraperitoneal route; format: functional; conditions: ip
# Mus musculus [30] = experiment: Compound was evaluated for elevation of cGMP in vivo through subcutaneous route; format: functional; conditions: sc
# Gerbillinae [31] = experiment: Compound was evaluated for neuroprotection, in gerbil seizure model in vivo through intraperitoneal route; format: functional
# Glutamate NMDA receptor [32] = experiment: Compound was evaluated for in vitro inhibition of [3H]-MK-801 at NMDA receptor.; format: protein-complex assay
# [33] = target: T1, Glutamate receptor ionotropic, NMDA 1; experiment: Compound was evaluated for in vitro inhibition of oocytes at NMDA receptor.; format: cell-based, frog; conditions: oocyte
# Mus musculus [34] = experiment: In vivo antagonist activity against seizures elicited by NMDA in mice administered intraperitoneally; format: functional; conditions: ip
# Mus musculus [35] = experiment: Antagonist activity in plus-maze in vivo through intraperitoneal route; format: functional; conditions: ip
# Mus musculus [36] = experiment: Antagonist activity in forced swim model, in vivo through intraperitoneal route; format: functional; conditions: ip
# Mus musculus [37] = experiment: Antagonist activity in audiogenic seizure model in vivo through icv route; format: functional
# Mus musculus [38] = experiment: Separation-induced vocalization in vivo through ip route; format: functional
# Mus musculus [39] = experiment: Antagonist activity in electroshock in vivo through intravenous route; format: functional
# [40] = target: T1, Glutamate receptor ionotropic, NMDA 1; experiment: Compound was evaluated for in vitro inhibition of spinal cord at NMDA receptor.
# T2 sequence (Q00961 whole entry): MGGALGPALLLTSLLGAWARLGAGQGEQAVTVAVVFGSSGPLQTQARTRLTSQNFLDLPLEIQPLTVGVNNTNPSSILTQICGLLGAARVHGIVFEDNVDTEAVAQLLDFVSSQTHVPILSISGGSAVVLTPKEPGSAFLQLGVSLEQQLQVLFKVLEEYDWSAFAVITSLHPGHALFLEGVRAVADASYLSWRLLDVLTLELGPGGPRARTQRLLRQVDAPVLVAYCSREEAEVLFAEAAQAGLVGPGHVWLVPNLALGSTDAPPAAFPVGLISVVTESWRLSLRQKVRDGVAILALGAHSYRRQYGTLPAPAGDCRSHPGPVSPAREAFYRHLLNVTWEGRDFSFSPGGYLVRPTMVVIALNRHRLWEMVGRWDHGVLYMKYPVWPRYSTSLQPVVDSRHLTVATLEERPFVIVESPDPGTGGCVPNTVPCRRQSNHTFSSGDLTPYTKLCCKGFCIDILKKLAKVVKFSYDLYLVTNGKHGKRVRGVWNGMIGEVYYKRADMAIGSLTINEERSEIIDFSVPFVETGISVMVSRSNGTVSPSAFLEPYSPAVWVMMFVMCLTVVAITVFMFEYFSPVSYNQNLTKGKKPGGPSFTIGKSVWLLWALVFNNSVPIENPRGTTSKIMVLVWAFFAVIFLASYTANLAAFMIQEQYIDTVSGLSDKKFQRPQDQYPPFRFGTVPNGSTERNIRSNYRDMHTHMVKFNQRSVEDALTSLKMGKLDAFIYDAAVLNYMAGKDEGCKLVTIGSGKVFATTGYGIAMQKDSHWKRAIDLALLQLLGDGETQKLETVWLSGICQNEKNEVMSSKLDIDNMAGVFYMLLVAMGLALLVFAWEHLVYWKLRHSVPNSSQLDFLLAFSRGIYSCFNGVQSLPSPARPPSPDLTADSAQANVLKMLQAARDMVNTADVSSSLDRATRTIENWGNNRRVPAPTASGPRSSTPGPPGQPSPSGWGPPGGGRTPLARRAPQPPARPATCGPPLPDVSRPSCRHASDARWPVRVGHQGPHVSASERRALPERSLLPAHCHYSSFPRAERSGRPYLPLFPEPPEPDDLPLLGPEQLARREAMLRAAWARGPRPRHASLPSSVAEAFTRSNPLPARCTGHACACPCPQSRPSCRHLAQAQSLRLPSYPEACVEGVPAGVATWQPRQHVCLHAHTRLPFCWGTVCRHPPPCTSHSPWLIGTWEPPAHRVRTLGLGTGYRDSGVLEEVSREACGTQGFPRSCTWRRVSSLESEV
compound,measurement,setting,value
N[C@@H]1CCN(O)C1=O,ED50,Mus musculus [1],890 mg/kg
same,ED50,Mus musculus [2],53 mg/kg
same,Ki,[3],2500 nM
same,ED50,Mus musculus [4],30 mg/kg
same,ED50,Mus musculus [5],30 mg/kg
same,IC50,Glutamate NMDA receptor [6],12500 nM
O=C(C[C@@H]1CCc2cc(Br)cc3[nH]c(=O)c(=O)n1c23)Nc1ccccc1,IC50,Glutamate NMDA receptor [6],2.6 nM
NCC(=O)Nn1ccc2ccccc21,EC50,Glutamate NMDA receptor [7],3.6 µM
same,IC50,Glutamate NMDA receptor [7],780 µM
same,IC50,Glutamate NMDA receptor [6],36000 nM
CCOC(=O)Cc1c(C(=O)O)[nH]c2cc(Cl)ccc12,MED50,[8],100 mg/kg
same,IC50,Glutamate NMDA receptor [6],630 nM
COC(=O)[C@H]1C[C@H](NC(=O)Cc2ccc(CN)cc2)c2c(Cl)cc(Cl)cc2N1,ED50,Mus musculus [9],32 mg/kg
O=C(O)Cn1c(=O)c(=O)[nH]c2cc(Cl)c(Cl)cc21,IC50,Glutamate NMDA receptor [6],110 nM
Oc1nc2cc(Cl)c(Cl)cc2n2ccnc12,IC50,Glutamate NMDA receptor [6],6000 nM
O=C1C2CC(CCN2)N1O (configuration not stated),Ki,[3],3500 nM
same,IC50,Glutamate NMDA receptor [6],19000 nM
N[C@@H](/C=C/CCO)C(=O)O,EC50,Glutamate NMDA receptor [10],930 nM
same,IC50,Glutamate NMDA receptor [6],750 nM
O=C(O)c1nc2c(Cl)cc(Cl)cc2[nH]1,IC50,Glutamate NMDA receptor [6],800 nM
NC(Cc1ccc(CC(=O)N[C@H]2C[C@H](C(=O)O)Nc3cc(Cl)cc(Cl)c32)cc1)C(=O)O (some centres not stated),ED50,Mus musculus [9],29 mg/kg
same,ED50,Mus musculus [11],0.5
O=C(O)c1cc(S)c2ccc(Cl)cc2n1,IC50,[12],5 µM
same,ED50,Rattus norvegicus [13],20 mg/kg
same,IC50,Glutamate NMDA receptor [6],400 nM
N#Cc1cc2c(cc1[N+](=O)[O-])=NC(=O)C(=O)N=2,IC50,Glutamate NMDA receptor [6],4800 nM
O=c1[nH]c2cc(Cl)ccc2c(O)c1-c1cccc(Oc2ccsc2)c1,ED50,Mus musculus [2],0.8 mg/kg
same,ED50,Mus musculus [14],0.9 mg/kg
same,IC50,Glutamate NMDA receptor [6],1.4 nM
N[C@H]1C(=O)N(O)C[C@H]1O,Ki,[3],750 nM
same,IC50,Glutamate NMDA receptor [6],1300 nM
"O=C(O)c1nc2cc(Cl)c(Cl)cc2nc1O [6,7-DICHLORO-3-HYDROXY-2-QUINOXALINECARBOXYLIC ACID]",IC50,Glutamate NMDA receptor [6],460 nM
O=[N+]([O-])c1cc([N+](=O)[O-])c2nc(O)c(O)nc2c1,EC50,[15],400 nM
same,IC50,[16],400 nM
same,IC50,[17],170 nM
same,IC50,Glutamate NMDA receptor [6],1000 nM
O=c1[nH][nH]c(=O)c2c1[nH]c1cc(Cl)cc(Cl)c12,MED50,Gerbillinae [18],10 mg/kg
same,IC50,Glutamate NMDA receptor [6],410 nM
O=C(O)CSc1c(C(=O)O)[nH]c2cc(Cl)cc(Cl)c12,EC50,[19],140 µM
O=C(Nc1ccccc1)N[C@H]1C[C@H](C(=O)O)Nc2cc(Cl)cc(Cl)c21,ED50,Mus musculus [9],> 100 mg/kg
same,IC50,Glutamate NMDA receptor [6],7.8 nM
C[C@@H]1CN(O)C(=O)[C@@H]1N,ED50,Mus musculus [20],44 mg/kg
same,ED50,Rattus norvegicus [21],13.5 mg/kg
same,ED50,Mus musculus [9],5.1 mg/kg
same,Ki,[3],650 nM
same,ED50,Mus musculus [22],26 mg/kg
same,ED50,Mus musculus [23],20 mg/kg
same,ED50,Mus musculus [24],13 mg/kg
same,IC50,Glutamate NMDA receptor [6],1400 nM
O=C(O)CCc1c(C(=O)O)[nH]c2cc(Cl)cc(Cl)c12,IC50,[25],2700 nM
same,ED50,Mus musculus [9],100 mg/kg
same,ED50,Mus musculus [11],0.09 µg
O=C(O)Cc1c(C(=O)O)[nH]c2cc(Cl)ccc12,ED50,Rattus norvegicus [26],5.4 µg
same,ED50,"Rattus norvegicus [26]; Rattus norvegicus, ip, read-out: ED50",> 50 mg/kg
same,IC50,Glutamate NMDA receptor [6],960 nM
O=c1cc(O)c2c(Cl)cc(Cl)cc2[nH]c1=O,IC50,Glutamate NMDA receptor [6],31 nM
NCc1ccc(CC(=O)N[C@H]2C[C@H](C(=O)O)Nc3cc(Cl)cc(Cl)c32)cc1,ED50,Mus musculus [9],39 mg/kg
same,ED50,Mus musculus [11],3.5
CN(C(=O)c1ccccc1)c1c(C(=O)O)[nH]c2cc(Cl)ccc12,IC50,Glutamate NMDA receptor [6],110 nM
O=c1[nH]c2cc(Cl)c(Cl)c([N+](=O)[O-])c2[nH]c1=O [LICOSTINEL],ED50,Mus musculus [27],5 mg/kg
CC(CN(C)C)OC(=O)c1cc(O)c2c(Cl)cc(Cl)cc2n1 (configuration not stated),ED50,Mus musculus [28],62 mg/kg
N[C@@H]1CONC1=O [CYCLOSERINE],ED50,Mus musculus [29],3 mg/kg
same,ED50,Mus musculus [30],1.25 mg/kg
O=c1[nH][nH]c(=O)c2c(O)c3c(Cl)cc(Cl)cc3nc12,MED50,Gerbillinae [31],10 mg/kg
same,IC50,Glutamate NMDA receptor [6],100 nM
NC1(C(=O)O)CC1 [1-Aminocyclopropane carboxylic acid],EC50,Glutamate NMDA receptor [32],140 nM
same,IC50,Glutamate NMDA receptor [6],40 nM
NCc1ccc(NC(=O)CCc2c(C(=O)O)[nH]c3cc(Cl)cc(Cl)c23)cc1,IC50,Glutamate NMDA receptor [6],27 nM
O=C(c1c(O)nc2cc(Cl)ccc2c1O)C1CC1,ED50,Mus musculus [9],4.1 mg/kg
NC1(C(=O)O)CCC1 [1-AMINOCYCLOBUTANE CARBOXYLIC ACID],IC50,[33],18.5 µM
same,IC50,Glutamate NMDA receptor [6],19000 nM
COC(=O)C1(N)CC1,ED50,Mus musculus [34],46 mg/kg
same,ED50,Mus musculus [35],200 mg/kg
same,ED50,Mus musculus [36],100 mg/kg
same,IC50,Glutamate NMDA receptor [6],> 40000 nM
O=C(O)c1cc(O)c2c(Cl)cc(Cl)cc2n1,ED50,Mus musculus [37],7.5 nM
same,ED50,Mus musculus [38],67 mg/kg
same,ED50,Mus musculus [9],> 250 mg/kg
O=C(O)C1Nc2cc(Cl)cc(Cl)c2S(=O)(=O)N1Cc1cccc(Br)c1 (configuration not stated),IC50,Glutamate NMDA receptor [6],8 nM
O=c1[nH]c2cc([N+](=O)[O-])c([N+](=O)[O-])cc2[nH]c1=O [DNQX],IC50,Glutamate NMDA receptor [6],1300 nM
O=C(O)c1cc(=O)c2ccccc2[nH]1 [TRANSTORINE],ED50,Mus musculus [37],20 nM
same,ED50,Mus musculus [9],> 250 mg/kg
O=C(NS(=O)(=O)c1ccccc1)c1nc2cc(Cl)c(Cl)cc2[nH]c1=O,ED50,Mus musculus [39],> 100 mg/kg
same,IC50,[19],11 µM
same,IC50,Glutamate NMDA receptor [6],120 nM
O=c1[nH]c2cc(Cl)ccc2c(O)c1-c1cccc(Oc2ccccc2)c1,ED50,Mus musculus [2],0.9 mg/kg
same,ED50,Mus musculus [14],0.9 mg/kg
Oc1ccc(-c2c(O)nc3cc(Cl)cc(Cl)c3c2O)cc1,IC50,[40],2100 nM
same,IC50,Glutamate NMDA receptor [6],11 nM
N[C@H](/C=C/CCO)C(=O)O,EC50,Glutamate NMDA receptor [10],330 nM
same,IC50,Glutamate NMDA receptor [6],240 nM
